No end group written: not given here.
Key:
trypsin = experiment: Trypsin inhibition, chromogenic substrate (serine protease inhibitory testing); type: biochemical; details: for Reciprocal reaction velocity of trypsin, 1/V av / Reaction velocity of trypsin, V av: pH 7.8, 37 °C, means of three duplicate experiments
Method: (§1) Effects of the tested samples on the hydrolysis of synthetic chromogenic substrates by different serine proteases were assayed in 0.05 M Tris–HCl, pH 7.8 (for trypsin, Sigma T4665; thrombin, Sigma T4393; chymotrypsin, Sigma C4129; elastase, Sigma E1250; plasmin, Sigma P1867) or pH 8.45 (for substilisin, Sigma P5380) buffer at 37 °C. The protease (trypsin, 10 nM; thrombin, 10 nM; chymotrypsin, 21 nM; elastase, 23 nM and substilisin, 30 nM) and different amounts of LL-TIL (final concentrations ranging from 0.0 to 20 μM) were pre-incubated for 10 min at 37 °C. […] The formation of p-nitroaniline was monitored continuously at 405 for 2 min. For chymotrypsin, the reaction was monitored at 253 nm. The inhibition constant Ki was determined according to the reported method.

elastase [1] = experiment: Elastase inhibition, chromogenic substrate; type: biochemical; details: elastase 23 nM; 0.05 M Tris-HCl pH 7.8, 37 °C; LL-TIL 0.0 to 20 μM; pre-incubated 10 min; data not shown
Text: (§2) Presently, the biological role of proteinase inhibitory peptides in amphibian skins is explained mainly by two hypotheses. One is that several enzymes are involved in peptide precursor processing or peptide degradation in the skin and proteinase inhibitors negatively modulate the activity of these proteases to avoid premature degradation or release of skin peptides. The other hypothesis is that the peptides are surface anti-infective agent similar to AMPs because they inhibit extracellular proteases produced by invading bacteria. […] Further work is needed to address this issue.
as §1

[2] = test system: Bacillus subtilis (ATCC 6633); experiment: Antimicrobial assay (MIC); type: cell-based; details: recombinant LL-TIL, data not shown
Method: (§3) For antimicrobial assays, several microorganisms including Gram positive bacterium S. aureus (ATCC 25923), […] and fungus C. albicans (ATCC 20032) were obtained from Kunming Medical College. They were first grown in LB (Luria–Bertani) broth or yeast extract–peptone–dextrose broth as our previous methods. MIC (minimal inhibitory concentration) of tested sample against these microorganisms was determined as previous reports. The MIC is defined as the lowest concentration of tested sample to inhibit microorganism growth.

[3] = test system: Escherichia coli (ATCC 25922); experiment: Antimicrobial assay (MIC); type: cell-based; details: recombinant LL-TIL, ATCC 25922, Gram-negative, data not shown
Method: as §3

[4] = test system: Candida albicans (ATCC 20032); experiment: Antimicrobial assay (MIC); type: cell-based; details: recombinant LL-TIL, ATCC 20032, fungus, data not shown
Method: as §3

[5] = test system: Staphylococcus aureus (ATCC 25923); experiment: Antimicrobial assay (MIC); type: cell-based; details: recombinant LL-TIL, ATCC 25923, Gram positive, data not shown
Method: as §3

plasmin = experiment: Plasmin inhibition, chromogenic substrate; type: biochemical; details: 0.05 M Tris-HCl pH 7.8, 37 °C; LL-TIL 0.0 to 20 μM; pre-incubated 10 min; data not shown
Text: as §2, §1

microorganisms = experiment: Antimicrobial assay, overall statement; type: cell-based; details: recombinant LL-TIL; S. aureus, E. coli, B. subtilis, C. albicans tested
Method: as §3

thrombin = experiment: Thrombin inhibition, chromogenic substrate; type: biochemical; details: thrombin 10 nM; 0.05 M Tris-HCl pH 7.8, 37 °C; LL-TIL 0.0 to 20 μM; pre-incubated 10 min; data not shown
Text: as §2, §1

substilisin = experiment: Substilisin inhibition, chromogenic substrate; type: biochemical; details: substilisin 30 nM; pH 8.45, 37 °C; LL-TIL 0.0 to 20 μM; pre-incubated 10 min; data not shown
Text: as §2, §1

chymotrypsin [6] = experiment: Chymotrypsin inhibition, chromogenic substrate; type: biochemical; details: chymotrypsin 21 nM; 0.05 M Tris-HCl pH 7.8, 37 °C; monitored at 253 nm; LL-TIL 0.0 to 20 μM; pre-incubated 10 min; data not shown
Text: as §2, §1

chymotrypsin [7] = test system: chymotrypsin; set-up: method as in 2 sources, one per row (each row's own in cited_ref): ref [15] = [15]; PMID 16191451; doi:10.1016/j.peptides.2005.07.013; 15. Fogaca AC Almeida IC Eberlin MN Tanaka AS Bulet P Daffre S Peptides 2006 27 667 674 10.1016/j.peptides.2005.07.013 16191451 ||| ref [20] = [20]; PMID 23200835; doi:10.1016/j.bbrc.2012.11.056; 20. Kim BY Lee KS Wan H Zou FM Choi YS Yoon HJ Kwon HW Je YH Jin BR Biochem. Biophys. Res. Commun. 2013 430 144 149 10.1016/j.bbrc.2012.11.056 23200835; details: ref [15]; cited from earlier work
[8] = set-up: method as in PMID 16191451; details: ref [15]; cited from earlier work
elastase [9] = test system: elastase; set-up: method as in 3 sources, ref [14] = [14]; PMID 23533574; doi:10.1371/journal.pone.0057529; 14. Chen ZY Wang B Hu J Yang WS Cao ZJ Zhuo RX Li W Wu Y PLoS ONE 2013 8 e57529 10.1371/journal.pone.0057529 23533574 PMC3606364 ||| ref [15] = [15]; PMID 16191451; doi:10.1016/j.peptides.2005.07.013; 15. Fogaca AC Almeida IC Eberlin MN Tanaka AS Bulet P Daffre S Peptides 2006 27 667 674 10.1016/j.peptides.2005.07.013 16191451 ||| ref [20] = [20]; PMID 23200835; doi:10.1016/j.bbrc.2012.11.056; 20. Kim BY Lee KS Wan H Zou FM Choi YS Yoon HJ Kwon HW Je YH Jin BR Biochem. Biophys. Res. Commun. 2013 430 144 149 10.1016/j.bbrc.2012.11.056 23200835; details: ref [15]; cited from earlier work
trypsin (Sigma T4665) = experiment: enzyme inhibition kinetics (chromogenic substrate, Dixon plot); trypsin 10 nM pre-incubated with LL-TIL for 10 min at 37 °C in 0.05 M Tris-HCl, pH 7.8; reaction started with substrate B-3133; p-nitroaniline followed at 405 for 2 min; Ki by Dixon plot from velocities at [S] = 0.2 and 0.4 mM

Question: Which “inhibition of trypsin (in words)” value (trypsin; 0.05 M Tris-HCl pH 7.8, 37 °C, trypsin 10 nM, LL-TIL 0.0 to 20 μM) does the source give for “IRCPKDKIYKFCGSPCPPSCKDLTPNCIAVCKKGCFCRDGTVDNNHGKCVKKENC (disulfide (positions not given here)) [LL-TIL]” here?
Answer: inhibited the activity of trypsin

Question: What about the “Reciprocal reaction velocity of trypsin, 1/V av” value (“Reciprocal reaction velocity” for short) (trypsin; [I] = 12.987 μM, [S] = 0.2 mM, 1/V av at [I] 0: 3.7864) of the same substance?
Answer: 5.2826

Question: And the “Reaction velocity of trypsin, V av” value (trypsin; [I] = 12.987 μM, [S] = 0.2 mM, V av at [I] 0: 0.2641)?
Answer: 0.1893

Question: What about the “Reciprocal reaction velocity” value (trypsin; [I] = 12.987 μM, [S] = 0.4 mM, 1/V av at [I] 0: 2.7352) of the same substance?
Answer: 3.8700

Question: What about the “Reaction velocity of trypsin, V av” value (trypsin; [I] = 12.987 μM, [S] = 0.4 mM, V av at [I] 0: 0.3656) of the same substance?
Answer: 0.2584

Question: What about the “Reciprocal reaction velocity” value (trypsin; [I] = 25.974 μM, [S] = 0.2 mM, 1/V av at [I] 0: 3.7864) of the same substance?
Answer: 7.3116

Question: And the “Reaction velocity of trypsin, V av” value (trypsin; [I] = 25.974 μM, [S] = 0.2 mM, V av at [I] 0: 0.2641)?
Answer: 0.1368

Question: And the “Reciprocal reaction velocity” value (trypsin; [I] = 25.974 μM, [S] = 0.4 mM, 1/V av at [I] 0: 2.7352)?
Answer: 4.8481

Question: And the “Reaction velocity of trypsin, V av” value (trypsin; [I] = 25.974 μM, [S] = 0.4 mM, V av at [I] 0: 0.3656)?
Answer: 0.2063

Question: What about the Ki (trypsin; recombinant LL-TIL, trypsin 10 nM, 0.05 M Tris-HCl pH 7.8, 37 °C, pre-incubated 10 min, chromogenic substrate B-3133, p-nitroaniline at 405 for 2 min, Dixon plot, [S] 0.2 and 0.4 mM) of the same substance?
Answer: 16.5 µM

Question: What about the “inhibition of hydrolysis of chromogenic substrate by elastase” value (elastase [1]) of the same substance?
Answer: did not inhibit

Question: What about the “antimicrobial ability against B. subtilis” value [2] of the same substance?
Answer: no antimicrobial abilities

Question: And the “antimicrobial ability against E. coli” value [3]?
Answer: no antimicrobial abilities

Question: And the “antimicrobial ability against C. albicans” value [4]?
Answer: no antimicrobial abilities

Question: What about the “antimicrobial ability against S. aureus” value [5] of the same substance?
Answer: no antimicrobial abilities

Question: And the “inhibition of hydrolysis of chromogenic substrate by plasmin” value (plasmin)?
Answer: did not inhibit

Question: What about the “antimicrobial activity (overall)” value (microorganisms) of the same substance?
Answer: no antimicrobial activity

Question: What about the “inhibition of hydrolysis of chromogenic substrate by thrombin” value (thrombin) of the same substance?
Answer: did not inhibit

Question: And the “inhibition of hydrolysis of chromogenic substrate by substilisin” value (substilisin)?
Answer: did not inhibit

Question: And the “inhibition of hydrolysis of chromogenic substrate by chymotrypsin” value (chymotrypsin [6])?
Answer: did not inhibit

Question: For “Ixodidin: from hemocytes of the cattle tick”, which inhibition of chymotrypsin (chymotrypsin [7]) is on record?
Answer: able to inhibit

Question: What about the antimicrobial activity [8] of the same substance?
Answer: weak antimicrobial activities

Question: What about the inhibition of elastase (elastase [9]) of the same substance?
Answer: able to inhibit

Question: For “LL-TIL (trypsin inhibitor-like cysteine-rich peptide from Lepidobatrachus laevis), recombinant mature peptide”, which Ki (trypsin (Sigma T4665)) is on record?
Answer: 16.5 µM

Reference: article PMC4567993, “A Novel Trypsin Inhibitor-Like Cysteine-Rich Peptide from the Frog Lepidobatrachus laevis Containing Proteinase-Inhibiting Activity” (Natural Products and Bioprospecting, 2015)
